Where two headings read alike, the source gives them in different places.
Columns and labels:
α1b-AR = target: T1, α1b-AR (Homo sapiens, UniProt P35368); test: radioligand ([125I]-HEAT) receptor binding assay, COS cell membranes, α1b-AR
T1 construct: expressed in transfected cells; host or cells: COS cells (pcDNA3 vector, DEAE-dextran transient transfection); membrane preparation
T1 sequence (P35368 1-520): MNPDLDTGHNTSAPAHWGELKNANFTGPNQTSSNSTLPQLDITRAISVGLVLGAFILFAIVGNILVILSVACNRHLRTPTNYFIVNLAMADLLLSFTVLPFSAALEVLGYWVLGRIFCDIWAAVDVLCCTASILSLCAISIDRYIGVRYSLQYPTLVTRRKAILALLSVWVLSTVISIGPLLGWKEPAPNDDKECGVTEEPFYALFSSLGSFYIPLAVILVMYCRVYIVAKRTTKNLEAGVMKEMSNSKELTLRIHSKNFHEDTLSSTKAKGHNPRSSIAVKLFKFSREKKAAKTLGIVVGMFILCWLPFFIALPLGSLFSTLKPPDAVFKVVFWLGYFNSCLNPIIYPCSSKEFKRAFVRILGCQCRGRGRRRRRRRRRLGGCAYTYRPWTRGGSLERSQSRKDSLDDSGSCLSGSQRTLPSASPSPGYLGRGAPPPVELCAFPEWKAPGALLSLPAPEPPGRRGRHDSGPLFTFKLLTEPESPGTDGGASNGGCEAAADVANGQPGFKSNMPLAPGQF
Text: (§1) The first assay tested the ability of compounds of Formula I to bind to membrane bound receptors α1a-AR, α1b-AR and α1d-AR.
(§2) The DNA sequences of the three cloned human α1-AR subtypes have been published. […] We used published DNA sequence information to design-primers for use in RT-PCR amplification of each subtype to obtain cloned cDNAs. Human poly A+ RNA was obtained from commercially available sources and included hippocampus and prostate samples, sources which have been cited in the literature. For the primary screen a radio ligand binding assay was used which employed membrane preparations from cells expressing the individual cloned receptor cDNAs. Radiolabeled ligands with binding activity on all three subtypes (non-selective) are commercially available ([125I]-HEAT, [3H]-prazosin).
(§3) Each α1 receptor subtype was cloned from poly A+ RNA by the standard method of reverse transcription-polymerase chain reaction (RT-PCR). The following sources of polyA+ RNA were used for the cloning of the al receptor subtypes: α1a-AR, human hippocampus and prostate, α1b-AR, human hippocampus, α1d-AR, human hippocampus. The resulting cDNAs were cloned into the pcDNA3 mammalian expression vector (Invitrogen Corp., San Diego Calif.). Each DNA was sequenced for verification and to detect any possible mutations introduced during the amplification process. Any deviation in sequence from the published consensus for each receptor subtype was corrected by site-directed mutagenesis.
(§4) The three α1-AR subtypes (a, b, d) were transfected into COS cells using a standard DEAE-dextran procedure with a chloroquine shock. In this procedure, each tissue culture dish (100 mm) was inoculated with 3.5×10^6 cells and transfected with 10 μg of DNA. Approximately 72 hours post-transfection, the cells were harvested and COS membranes were prepared. Transfected COS cells from 25 plates (100 mm) were scraped and suspended in 15 mL of TE buffer (50 mM Tris-HCl, 5 mM EDTA, pH7.4). The suspension was disrupted with a homogenizer. It was then centrifuged at 1000×g for 10 minutes at 4° C. The supernatant was centrifuged at 34,500×g for 20 minutes at 4° C. The pellet was resuspended in 5 mL TNE buffer (50 mM Tris-HCl, 5 mM EDTA, 150 mM NaCl, pH7.4). The resulting membrane preparation was aliquoted and stored at −70° C. The protein concentration was determined following membrane solubilization with TritonX-100.
(§5) The ability of each compound to bind to each of the α1-AR subtypes was assessed in a receptor binding assay. [125I]-HEAT, a non-selective α1-AR ligand, was used as the radiolabeled ligand. Each well of a 96-well plate received: 140 μL TNE, 25 μL [125I]-HEAT diluted in TNE (50,000 cpm; final concentration 50 pM), 10 μL test compound diluted in DMSO (final concentration 1 pM-10 μM), […] COS cell membrane preparation expressing one of the three α1-AR subtypes (0.05-0.2 mg membrane protein). The plate was incubated for 1 hour at room temperature and the reaction mixtures were filtered through a Packard GF/C Unifilter filter plate. The filter plate was dried for 1 hour in a vacuum oven. Scintillation fluid ([…]) was added to each well, and the filter plate was counted in a Packard Topcount scintillation counter. Data was analyzed using GraphPad Prism software.
(§6) Tables A-J list the IC50 values expressed in nanomolar concentration for select compounds of the invention in all receptor subtypes.

α1d-AR = target: T2, α1d-AR (Homo sapiens, UniProt P25100); test: radioligand ([125I]-HEAT) receptor binding assay, COS cell membranes, α1d-AR; conditions: Tables A-J, [125I]-HEAT 50 pM
T2 construct: expressed in transfected cells; host or cells: COS cells (pcDNA3 vector, DEAE-dextran transient transfection); membrane preparation
T2 sequence (P25100 1-572): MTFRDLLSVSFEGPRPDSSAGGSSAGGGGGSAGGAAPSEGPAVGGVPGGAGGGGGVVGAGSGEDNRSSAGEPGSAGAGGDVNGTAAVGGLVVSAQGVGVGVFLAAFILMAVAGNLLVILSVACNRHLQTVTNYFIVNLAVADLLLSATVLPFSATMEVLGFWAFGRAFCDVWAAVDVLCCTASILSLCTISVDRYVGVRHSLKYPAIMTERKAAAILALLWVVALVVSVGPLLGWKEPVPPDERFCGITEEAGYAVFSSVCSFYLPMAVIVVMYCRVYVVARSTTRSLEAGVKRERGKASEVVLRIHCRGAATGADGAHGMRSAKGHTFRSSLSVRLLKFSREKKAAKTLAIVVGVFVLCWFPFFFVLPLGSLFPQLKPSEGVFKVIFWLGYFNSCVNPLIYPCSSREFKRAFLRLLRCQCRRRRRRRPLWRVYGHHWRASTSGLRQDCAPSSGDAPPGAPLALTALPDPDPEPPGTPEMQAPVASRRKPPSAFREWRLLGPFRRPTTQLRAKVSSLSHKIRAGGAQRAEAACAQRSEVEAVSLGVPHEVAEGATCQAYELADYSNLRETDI
Text: as §1, §2, §3, §4, §5, §6

α1a-AR = target: T3, α1a-AR (Homo sapiens, UniProt P35348); test: radioligand ([125I]-HEAT) receptor binding assay, COS cell membranes, α1a-AR
T3 construct: expressed in transfected cells; host or cells: COS cells (pcDNA3 vector, DEAE-dextran transient transfection); membrane preparation
T3 sequence (P35348 1-466): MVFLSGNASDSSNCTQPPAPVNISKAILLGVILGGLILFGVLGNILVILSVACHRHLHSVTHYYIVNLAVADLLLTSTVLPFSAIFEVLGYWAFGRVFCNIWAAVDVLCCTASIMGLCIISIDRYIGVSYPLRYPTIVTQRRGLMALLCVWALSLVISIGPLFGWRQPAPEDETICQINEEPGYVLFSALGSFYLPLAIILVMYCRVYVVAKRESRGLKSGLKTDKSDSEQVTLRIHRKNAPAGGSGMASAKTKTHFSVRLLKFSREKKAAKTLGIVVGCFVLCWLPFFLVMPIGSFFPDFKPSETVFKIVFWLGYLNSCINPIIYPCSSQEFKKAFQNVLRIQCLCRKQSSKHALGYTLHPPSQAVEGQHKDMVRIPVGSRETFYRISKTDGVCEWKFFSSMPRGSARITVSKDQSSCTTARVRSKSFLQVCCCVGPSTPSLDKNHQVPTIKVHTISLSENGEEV
Text: as §1
as §2, with “cDNAs.” for “cDNAs. Radiolabeled ligands with binding activity on all three subtypes (non-selective) are commercially available ([125I]-HEAT, [3H]-prazosin).”
as §3, §4
The ability of each compound to bind to each of the α1-AR subtypes was assessed in a receptor binding assay. […] The plate was incubated for 1 hour at room temperature and the reaction mixtures were filtered through a Packard GF/C Unifilter filter plate. The filter plate was dried for 1 hour in a vacuum oven. Scintillation fluid ([…]) was added to each well, and the filter plate was counted in a Packard Topcount scintillation counter. Data was analyzed using GraphPad Prism software.

α1c = target: T4, α1c (Homo sapiens, UniProt P25100); test: α1c screen (as named in the preparative examples); assay type: binding; conditions: stated in the preparative example
T4 construct: expressed in transfected cells
T4 sequence (P25100 1-572): T2 sequence (P25100 1-572)
Text: as §1, §2, §3, §4
The ability of each compound to bind to each of the α1-AR subtypes was assessed in a receptor binding assay. [125I]-HEAT, a non-selective α1-AR ligand, was used as the radiolabeled ligand. […] Scintillation fluid (25 mL) was added to each well, and the filter plate was counted in a Packard Topcount scintillation counter. Data was analyzed using GraphPad Prism software.

[1] = Tables A-J, [125I]-HEAT 50 pM, COS membranes, read-out: α1b IC50
[2] = Tables A-J, [125I]-HEAT 50 pM, COS membranes, read-out: α1a IC50
[3] = stated in the preparative example, read-out: activity in the α1b screen
[4] = stated in the preparative example, read-out: activity in the α1a screen

IC50 (α1b-AR; [1]) [µM] | IC50 (α1d-AR) [µM] | IC50 (α1a-AR; [2]) [µM] | IC50 (α1c) [µM] | IC50 (α1b-AR; [3]) [µM] | IC50 (α1a-AR; [4]) [µM] | SMILES
> 10 | > 10 | 0.079 | – | – | – | CC(C)Oc1ccccc1N1CCN(Cc2cc(CN3CCCCC3=O)nc(N)n2)CC1 [Compound 4]
– | 0.272 | 0.0038 | – | – | – | CC(C)Oc1ccccc1N1CCN(Cc2cc(CN3CCCCC3=O)on2)CC1 [Compound 8]
> 10 | 1.52 | 0.089 | – | – | – | CC(C)Oc1ccccc1N1CCN(CC2=NOC(CN3CCCCC3=O)C2)CC1 (centres unmarked) [Compound 9]
> 10 | > 10 | 4.64 | – | – | – | CC(C)Oc1ccccc1N1CCN(Cc2nc(CN3CCCCC3=O)co2)CC1 [Compound 12]
3.47 | 0.079 | 0.0025 | – | – | – | CC(C)Oc1ccccc1N1CCN(Cc2ncc(CN3CCCC3=O)s2)CC1 [Compound 17]
> 10 | 0.046 | 0.08 | – | – | – | COc1ccccc1N1CCN(Cc2ccc(CN3CCCC3=O)s2)CC1 [Compound 23]
> 5.98 | 0.131 | 0.0022 | – | – | – | CC(C)Oc1ccccc1N1CCN(Cc2cc(CN3CCCC3=O)no2)CC1 [Compound 28]
0.62 | 0.024 | 0.00083 | – | – | – | CC(C)Oc1ccccc1N1CCN(Cc2cc(CN3CCCC3=O)cs2)CC1 [Compound 32]
– | – | – | 6.04 | > 10 | 0.417 | CC(C)Oc1ccccc1N1CCN(CC(=O)CC(=O)CN2CCCCC2=O)CC1 [compound 2]
– | – | – | 0.253 | > 10 | 0.028 | CC(C)Oc1ccccc1N1CCN(CC(O)CC(=O)CN2CCCCC2=O)CC1 (centres unmarked) [compound 35]
> 10 | 0.215 | 0.0063 | 0.602 | 5.32 | 0.018 | CC(C)Oc1ccccc1N1CCN(C/C=C/C(=O)CN2CCCCC2=O)CC1 [compound 36]
– | – | – | 0.224 | > 10 | 0.053 | CC(C)Oc1ccccc1N1CCN(CC(O)CC(O)CN2CCCCC2=O)CC1 (centres unmarked) [compound 37]
4.41 | 0.341 | 0.03 | – | – | – | O=C1CCCN1Cc1cc(CN2CCN(c3ccccc3Oc3ccccc3)CC2)on1 [compound 38]
> 10 | 0.57 | 0.172 | – | – | – | O=C1CCCCCN1Cc1cc(CN2CCN(c3ccccc3Oc3ccccc3)CC2)on1 [compound 39]
3.17 | 1.68 | 7.63 | – | – | – | COc1ccccc1N1CCN(Cc2cccc(CN3CCC3=O)n2)CC1 [compound 41]
1.42 | 0.526 | 8.59 | – | – | – | COc1ccccc1N1CCN(Cc2cccc(CN3CCCCCC3=O)n2)CC1 [compound 42]
3.94 | 0.577 | 2.03 | – | – | – | COc1ccccc1N1CCN(Cc2cccc(CN3CCCCCCC3=O)n2)CC1 [compound 44]
0.096 | 0.197 | 0.098 | – | – | – | CC(C)Oc1ccccc1N1CCN(Cc2cccc(CN3C(=O)CCCC3=O)n2)CC1 [compound 45]
1.75 | 0.174 | 0.069 | – | – | – | CC(C)Oc1ccccc1N1CCN(Cc2cccc(CN3C(=O)CCC3=O)n2)CC1 [compound 46]
3.32 | 0.291 | 0.147 | – | – | – | CC(C)Oc1ccccc1N1CCN(Cc2cccc(CN3C(=O)CCCC3c3ccccc3)n2)CC1 (centres unmarked) [compound 47]
> 10 | 0.026 | 0.029 | – | – | – | COc1ccccc1N1CCN(Cc2ccc(CN3CCCCC3=O)s2)CC1 [compound 48]
> 10 | 0.024 | 0.037 | – | – | – | COc1ccccc1N1CCN(Cc2ccc(CN3CCCCCC3=O)s2)CC1 [compound 49]
> 5.14 | 0.261 | 0.838 | – | – | – | COc1ccccc1N1CCN(Cc2ccc(CN3CCCCC3CO)s2)CC1 (centres unmarked) [compound 50]
3.02 | 0.5 | 1.73 | – | – | – | COc1ccccc1N1CCN(Cc2cccc(CN3CCCCC3=O)n2)CC1 [compound 54]
0.768 | 0.185 | 0.001 | – | – | – | CC(C)Oc1ccccc1N1CCN(Cc2cc(CN3CCCCC3=O)cs2)CC1 [compound 55]
1.23 | 0.095 | 0.0037 | – | – | – | CC(C)Oc1ccccc1N1CCN(Cc2cc(CN3CCCCCC3=O)cs2)CC1 [compound 56]

SMILES | IC50 (α1b-AR; [1]) [µM] | IC50 (α1d-AR) [µM] | IC50 (α1a-AR; [2]) [µM] | IC50 (α1c) [µM] | IC50 (α1b-AR; [3]) [µM] | IC50 (α1a-AR; [4]) [µM]
COc1ccccc1N1CCN(Cc2cccc(CN3CCCC3=O)n2)CC1 [compound 43] | 2.64 | 1.56 | 7.72 | – | – | –

Reference: patent US6841682B2, “Heterocycles useful in the treatment of benign prostatic hyperplasia” (Janseen Pharmaceutica N.V., priority 1997, dated 2005)
